Columns and labels:
[1] = target: DNA-dependent protein kinase catalytic subunit (Homo sapiens) (UniProt P78527); assay: Inhibition of recombinant human DNA-PK expressed in baculovirus expression system at 0.1 uM using serine/threonine-26 peptide as substrate incubated for 60 mins by Z'-LYTE assay relative to control
[2] = target: Vascular endothelial growth factor receptor 1 (Homo sapiens) (UniProt P17948); assay: Inhibition of recombinant human GST-tagged FLT1 catalytic domain (781 to 1338 residues) expressed in baculovirus expression system at 0.1 uM using tyrosine-4 peptide as substrate incubated for 60 mins by Z'-LYTE assay relative to control
[3] = target: Cyclin-dependent kinase 13/Cyclin-K (Homo sapiens) (UniProt Q14004+O75909); assay: Inhibition of tracer 236 binding to human GST/His-tagged CDK13/Cyclin K at 0.1 uM; format: protein-complex assay
[4] = target: Rho-associated protein kinase 1 (Homo sapiens) (UniProt Q13464); assay: Inhibition of recombinant human GST-tagged ROCK1 catalytic domain (1 to 535 amino acids) expressed in baculovirus expression system at 0.1 uM using serine/threonine-7 peptide as substrate incubated for 60 mins by Z'-LYTE assay relative to control
TAK1/TAB1 (Homo sapiens) = TAK1/TAB1 (Homo sapiens) (UniProt Q15750+O43318); assay: Inhibition of tracer 222 binding to recombinant human His-tagged TAK1-TAB1 catalytic domain (437 to 504 residues) expressed in baculovirus expression system at 0.1 uM measured after 60 mins by Lanthascreen assay relative to control
[5] = target: Mitogen-activated protein kinase kinase kinase kinase 5 (Homo sapiens) (UniProt Q9Y4K4); assay: Inhibition of recombinant full length human GST-tagged KHS1 expressed in baculovirus expression system at 0.1 uM using serine/threonine-7 peptide as substrate incubated for 60 mins by Z'-LYTE assay relative to control
[6] = target: Tyrosine-protein kinase Lck (Homo sapiens) (UniProt P06239); assay: Inhibition of recombinant full length human His-tagged LCK expressed in baculovirus expression system at 0.1 uM using tyrosine-2 peptide as substrate incubated for 60 mins by Z'-LYTE assay relative to control
[7] = target: Casein kinase I isoform delta (Homo sapiens) (UniProt P48730); assay: Inhibition of recombinant full length human GST-tagged CK1delta expressed in baculovirus expression system at 0.1 uM using serine/threonine-11 peptide as substrate incubated for 60 mins by Z'-LYTE assay relative to control
[8] = target: Maternal embryonic leucine zipper kinase (Homo sapiens) (UniProt Q14680); assay: Inhibition of recombinant human GST-tagged MELK catalytic domain (1 to 340 residues) expressed in baculovirus expression system at 0.1 uM using serine/threonine-17 peptide as substrate incubated for 60 mins by Z'-LYTE assay relative to control
[9] = target: Tyrosine-protein kinase JAK3 (Homo sapiens) (UniProt P52333); assay: Inhibition of recombinant human GST-tagged JAK3 catalytic domain (781 to 1124 residues) expressed in baculovirus expression system at 0.1 uM using tyrosine-6 peptide as substrate incubated for 60 mins by Z'-LYTE assay relative to control
[10] = target: Tyrosine-protein kinase Tec (Homo sapiens) (UniProt P42680); assay: Inhibition of tracer 178 binding to recombinant full length human His-tagged TEC expressed in baculovirus expression system at 0.1 uM measured after 60 mins by Lanthascreen assay
[11] = target: RAC-beta serine/threonine-protein kinase (Homo sapiens) (UniProt P31751); assay: Inhibition of recombinant full length human His-tagged AKT2 expressed in baculovirus expression system at 0.1 uM using serine/threonine-06 peptide as substrate incubated for 60 mins by Z'-LYTE assay relative to control
[12] = target: Serine/threonine-protein kinase MARK1 (Homo sapiens) (UniProt Q9P0L2); assay: Inhibition of recombinant full length human GST-tagged MARK1 expressed in baculovirus expression system at 0.1 uM using serine/threonine-21 peptide as substrate incubated for 60 mins by Z'-LYTE assay relative to control
[13] = target: Serine/threonine-protein kinase Nek1 (Homo sapiens) (UniProt Q96PY6); assay: Inhibition of recombinant full length human GST-tagged NEK1 catalytic domain (1 to 505 amino acids) expressed in baculovirus expression system at 0.1 uM using serine/threonine-7 peptide as substrate incubated for 60 mins by Z'-LYTE assay relative to control
[14] = target: Aurora kinase A (Homo sapiens) (UniProt O14965); assay: Inhibition of recombinant full length human His-tagged Aurora A expressed in baculovirus expression system at 0.1 uM using serine/threonine-1 peptide as substrate incubated for 60 mins by Z'-LYTE assay relative to control
[15] = target: Protein-tyrosine kinase 6 (Homo sapiens) (UniProt Q13882); assay: Inhibition of recombinant full length human His-tagged BRK expressed in baculovirus expression system at 0.1 uM using tyrosine-1 peptide as substrate incubated for 60 mins by Z'-LYTE assay relative to control
[16] = target: MAP kinase-activated protein kinase 5 (Homo sapiens) (UniProt Q8IW41); assay: Inhibition of recombinant full length human His-tagged PRAK expressed in baculovirus expression system at 0.1 uM using serine/threonine-4 peptide as substrate incubated for 60 mins by Z'-LYTE assay relative to control
[17] = target: G protein-coupled receptor kinase 6 (Homo sapiens) (UniProt P43250); assay: Inhibition of recombinant full length human GST-tagged GRK6 expressed in baculovirus expression system at 0.1 uM using serine/threonine-16 peptide as substrate incubated for 60 mins by Z'-LYTE assay relative to control
[18] = target: Cyclin-dependent kinase 14/Cyclin-Y (Homo sapiens) (UniProt O94921+Q8ND76); assay: Inhibition of tracer 236 binding to recombinant human GST-tagged CDK14/cyclin Y catalytic domain (CDK14: full length, Cyclin Y: 2 to end) expressed by baculovirus in Sf9 insect cells expression system at 0.1 uM measured after 60 mins by Lanthascreen assay relative to control
[19] = target: Focal adhesion kinase 1 (Homo sapiens) (UniProt Q05397); assay: Inhibition of recombinant full length human GST-tagged FAK expressed in baculovirus expression system at 0.1 uM using tyrosine-7 peptide as substrate incubated for 60 mins by Z'-LYTE assay relative to control
[20] = target: CDK18/Cyclin Y (Homo sapiens) (UniProt Q07002+Q8ND76); assay: Inhibition of recombinant full length human GST-tagged CDK18/Cyclin Y (2 to end amino acids) expressed in insect expression system at 0.1 uM using serine/threonine-12 peptide as substrate incubated for 60 mins by Z'-LYTE assay relative to control
[21] = target: Tyrosine-protein kinase Lyn (Homo sapiens) (UniProt P07948); assay: Inhibition of recombinant full length human LYN at 0.1 uM using tyrosine-2 peptide as substrate incubated for 60 mins by Z'-LYTE assay relative to control
[22] = target: CDK8/Cyclin C (Homo sapiens) (UniProt P49336+P24863); assay: Inhibition of tracer 236 binding to recombinant full length human His-tagged CDK8/cyclin C expressed in baculovirus expression system at 0.1 uM measured after 60 mins by Lanthascreen assay

RAC-beta serine/threonine-protein kinase (Homo sapiens), sequence (P31751 whole entry): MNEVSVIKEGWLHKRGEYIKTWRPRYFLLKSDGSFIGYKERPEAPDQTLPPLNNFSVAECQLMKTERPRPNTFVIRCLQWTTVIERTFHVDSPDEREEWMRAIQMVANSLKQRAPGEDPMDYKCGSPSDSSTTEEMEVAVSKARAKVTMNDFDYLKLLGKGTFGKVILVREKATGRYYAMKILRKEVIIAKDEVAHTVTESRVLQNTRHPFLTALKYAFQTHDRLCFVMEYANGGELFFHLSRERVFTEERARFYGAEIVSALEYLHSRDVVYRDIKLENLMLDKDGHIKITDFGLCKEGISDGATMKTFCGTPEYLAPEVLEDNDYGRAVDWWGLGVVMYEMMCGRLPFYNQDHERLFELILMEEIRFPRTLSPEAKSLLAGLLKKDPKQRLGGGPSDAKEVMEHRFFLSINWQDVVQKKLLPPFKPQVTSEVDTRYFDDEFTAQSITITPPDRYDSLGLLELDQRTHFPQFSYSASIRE
DNA-dependent protein kinase catalytic subunit (Homo sapiens), sequence (P78527 whole entry, the tested form may be a part): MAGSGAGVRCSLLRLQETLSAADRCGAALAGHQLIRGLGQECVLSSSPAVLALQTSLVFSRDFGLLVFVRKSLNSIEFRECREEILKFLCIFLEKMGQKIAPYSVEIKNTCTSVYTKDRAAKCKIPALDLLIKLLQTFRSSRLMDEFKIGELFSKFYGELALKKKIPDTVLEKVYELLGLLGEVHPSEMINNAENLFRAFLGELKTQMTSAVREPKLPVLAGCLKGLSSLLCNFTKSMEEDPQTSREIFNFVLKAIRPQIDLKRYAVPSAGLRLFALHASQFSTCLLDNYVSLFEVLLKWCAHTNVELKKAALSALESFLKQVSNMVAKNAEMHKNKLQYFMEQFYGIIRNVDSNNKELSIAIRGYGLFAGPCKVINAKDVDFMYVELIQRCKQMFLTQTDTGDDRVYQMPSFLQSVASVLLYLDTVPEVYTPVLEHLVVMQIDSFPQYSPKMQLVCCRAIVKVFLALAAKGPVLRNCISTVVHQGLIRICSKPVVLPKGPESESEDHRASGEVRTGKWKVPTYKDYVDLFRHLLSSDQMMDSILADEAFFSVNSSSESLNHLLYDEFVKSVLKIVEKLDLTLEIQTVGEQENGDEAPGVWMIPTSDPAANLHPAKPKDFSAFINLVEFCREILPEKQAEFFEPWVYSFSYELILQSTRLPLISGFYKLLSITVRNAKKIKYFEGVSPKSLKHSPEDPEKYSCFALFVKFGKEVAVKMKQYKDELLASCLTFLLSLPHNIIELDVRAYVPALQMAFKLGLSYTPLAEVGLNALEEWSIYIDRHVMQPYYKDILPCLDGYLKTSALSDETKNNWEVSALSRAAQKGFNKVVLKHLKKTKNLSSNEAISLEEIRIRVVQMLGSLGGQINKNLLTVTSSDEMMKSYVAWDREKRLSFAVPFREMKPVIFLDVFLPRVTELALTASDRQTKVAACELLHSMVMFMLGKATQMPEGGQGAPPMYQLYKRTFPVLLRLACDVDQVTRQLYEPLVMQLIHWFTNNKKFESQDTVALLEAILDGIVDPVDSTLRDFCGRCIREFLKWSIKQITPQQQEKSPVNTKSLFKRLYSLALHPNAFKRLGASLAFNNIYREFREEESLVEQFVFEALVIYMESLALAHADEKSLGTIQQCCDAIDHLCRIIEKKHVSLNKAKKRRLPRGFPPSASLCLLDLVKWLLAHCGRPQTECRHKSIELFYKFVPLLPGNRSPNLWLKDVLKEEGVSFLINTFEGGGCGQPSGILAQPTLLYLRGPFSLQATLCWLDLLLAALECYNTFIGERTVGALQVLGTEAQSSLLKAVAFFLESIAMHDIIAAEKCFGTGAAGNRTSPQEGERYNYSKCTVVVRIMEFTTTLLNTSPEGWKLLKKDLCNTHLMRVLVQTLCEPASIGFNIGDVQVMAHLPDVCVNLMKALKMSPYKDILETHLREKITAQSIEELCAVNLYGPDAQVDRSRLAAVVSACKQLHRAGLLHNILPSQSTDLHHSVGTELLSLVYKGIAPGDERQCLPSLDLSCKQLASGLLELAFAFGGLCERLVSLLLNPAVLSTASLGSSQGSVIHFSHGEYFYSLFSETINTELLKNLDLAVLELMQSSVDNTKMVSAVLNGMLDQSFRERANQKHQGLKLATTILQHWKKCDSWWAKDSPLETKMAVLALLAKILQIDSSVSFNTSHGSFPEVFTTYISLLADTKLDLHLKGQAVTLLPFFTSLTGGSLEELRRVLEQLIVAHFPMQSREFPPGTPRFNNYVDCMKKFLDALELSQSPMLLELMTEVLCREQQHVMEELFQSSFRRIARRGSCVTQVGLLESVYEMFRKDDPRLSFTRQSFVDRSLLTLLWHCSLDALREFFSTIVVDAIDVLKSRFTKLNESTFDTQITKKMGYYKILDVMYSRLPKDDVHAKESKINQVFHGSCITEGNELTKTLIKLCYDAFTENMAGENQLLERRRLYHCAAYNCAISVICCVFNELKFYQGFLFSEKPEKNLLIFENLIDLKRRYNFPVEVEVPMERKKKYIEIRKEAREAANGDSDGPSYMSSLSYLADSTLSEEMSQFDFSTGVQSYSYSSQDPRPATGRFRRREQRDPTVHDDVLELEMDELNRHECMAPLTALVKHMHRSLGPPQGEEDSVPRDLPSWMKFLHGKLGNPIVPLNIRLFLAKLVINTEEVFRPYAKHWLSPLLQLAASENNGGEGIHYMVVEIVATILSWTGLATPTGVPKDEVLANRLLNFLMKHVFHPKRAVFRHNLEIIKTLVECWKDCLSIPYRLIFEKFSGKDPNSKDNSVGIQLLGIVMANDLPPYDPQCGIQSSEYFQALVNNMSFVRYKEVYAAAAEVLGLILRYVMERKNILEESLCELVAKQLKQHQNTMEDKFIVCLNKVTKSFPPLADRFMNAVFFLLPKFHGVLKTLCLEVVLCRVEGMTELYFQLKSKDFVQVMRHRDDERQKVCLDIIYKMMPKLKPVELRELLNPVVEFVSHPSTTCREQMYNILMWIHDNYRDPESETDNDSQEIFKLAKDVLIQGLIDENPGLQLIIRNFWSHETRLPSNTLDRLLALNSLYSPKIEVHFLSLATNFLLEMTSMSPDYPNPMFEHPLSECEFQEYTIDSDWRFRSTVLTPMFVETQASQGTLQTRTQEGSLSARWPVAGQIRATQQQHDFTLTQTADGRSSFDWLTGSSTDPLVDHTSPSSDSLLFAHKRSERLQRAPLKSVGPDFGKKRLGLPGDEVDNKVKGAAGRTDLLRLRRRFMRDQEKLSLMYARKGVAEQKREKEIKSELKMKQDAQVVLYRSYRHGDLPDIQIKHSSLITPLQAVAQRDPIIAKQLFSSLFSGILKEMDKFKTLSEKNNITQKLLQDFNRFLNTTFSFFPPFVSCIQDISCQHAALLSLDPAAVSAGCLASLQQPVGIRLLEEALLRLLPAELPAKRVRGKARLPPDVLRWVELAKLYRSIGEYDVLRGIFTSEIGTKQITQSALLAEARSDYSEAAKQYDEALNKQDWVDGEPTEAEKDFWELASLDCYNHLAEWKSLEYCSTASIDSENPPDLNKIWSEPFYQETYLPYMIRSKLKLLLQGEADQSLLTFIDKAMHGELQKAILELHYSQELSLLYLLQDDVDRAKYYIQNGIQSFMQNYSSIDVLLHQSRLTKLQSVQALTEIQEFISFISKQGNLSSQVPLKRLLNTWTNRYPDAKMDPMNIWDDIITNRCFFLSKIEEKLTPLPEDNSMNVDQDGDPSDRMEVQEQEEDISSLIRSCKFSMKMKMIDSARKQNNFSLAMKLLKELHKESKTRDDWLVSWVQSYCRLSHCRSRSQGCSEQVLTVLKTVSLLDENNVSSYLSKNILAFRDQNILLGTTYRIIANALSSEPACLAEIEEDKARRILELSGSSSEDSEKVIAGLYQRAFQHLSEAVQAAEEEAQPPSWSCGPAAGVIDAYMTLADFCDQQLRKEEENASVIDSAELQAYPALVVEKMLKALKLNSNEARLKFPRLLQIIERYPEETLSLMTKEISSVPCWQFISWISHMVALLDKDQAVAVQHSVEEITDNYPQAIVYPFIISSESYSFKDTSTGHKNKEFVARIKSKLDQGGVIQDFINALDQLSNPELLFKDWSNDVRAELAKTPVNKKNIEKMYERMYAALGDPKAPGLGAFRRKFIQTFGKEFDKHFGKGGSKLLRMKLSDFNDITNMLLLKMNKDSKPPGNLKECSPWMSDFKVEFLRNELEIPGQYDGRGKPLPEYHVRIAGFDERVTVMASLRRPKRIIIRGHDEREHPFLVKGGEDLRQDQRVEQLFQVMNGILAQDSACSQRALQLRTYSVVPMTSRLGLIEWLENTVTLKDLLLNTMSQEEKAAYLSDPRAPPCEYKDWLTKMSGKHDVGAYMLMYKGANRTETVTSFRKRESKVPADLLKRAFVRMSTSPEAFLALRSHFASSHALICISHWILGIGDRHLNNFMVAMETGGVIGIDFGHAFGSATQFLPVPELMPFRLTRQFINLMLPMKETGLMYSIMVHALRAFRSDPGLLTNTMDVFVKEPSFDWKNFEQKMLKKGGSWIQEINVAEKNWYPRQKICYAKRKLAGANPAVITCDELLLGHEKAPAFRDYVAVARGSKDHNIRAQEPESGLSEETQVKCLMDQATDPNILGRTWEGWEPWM
MAP kinase-activated protein kinase 5 (Homo sapiens), sequence (Q8IW41 whole entry): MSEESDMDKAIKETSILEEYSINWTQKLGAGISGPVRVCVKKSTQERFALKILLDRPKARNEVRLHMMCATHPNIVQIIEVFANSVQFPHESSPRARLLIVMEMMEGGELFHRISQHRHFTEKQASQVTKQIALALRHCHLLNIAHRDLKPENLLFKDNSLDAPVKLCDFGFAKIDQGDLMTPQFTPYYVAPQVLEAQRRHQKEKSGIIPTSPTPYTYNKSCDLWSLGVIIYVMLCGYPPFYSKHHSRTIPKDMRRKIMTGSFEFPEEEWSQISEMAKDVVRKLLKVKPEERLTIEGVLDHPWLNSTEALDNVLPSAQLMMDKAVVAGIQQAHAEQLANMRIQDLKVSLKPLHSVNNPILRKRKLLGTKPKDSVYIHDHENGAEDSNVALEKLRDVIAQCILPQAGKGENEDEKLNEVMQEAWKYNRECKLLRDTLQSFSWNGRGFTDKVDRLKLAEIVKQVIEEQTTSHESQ

Structure (SMILES): CCN1CCN(Cc2ccc(Nc3ncc(F)c(-c4cc(F)c5nc(C)n(C(C)C)c5c4)n3)nc2)CC1 [ABEMACICLIB]
- inhibition [1]: 14%
- inhibition [2]: 3%
- inhibition [3]: 38%
- inhibition [4]: 18.5%
- inhibition (TAK1/TAB1 (Homo sapiens)): 57.1%
- inhibition [5]: 27.3%
- inhibition [6]: 12.5%
- inhibition [7]: 10.5%
- inhibition [8]: 12.5%
- inhibition [9]: 30%
- inhibition [10]: 0.8%
- inhibition [11]: 3%
- inhibition [12]: 6%
- inhibition [13]: 14%
- inhibition [14]: 9.5%
- inhibition [15]: 5%
- inhibition [16]: 5%
- inhibition [17]: 6%
- inhibition [18]: 56%
- inhibition [19]: 15.5%
- inhibition [20]: 29%
- inhibition [21]: 6%
- inhibition [22]: 24.2%

Structure (SMILES): CCN1CC2(C1)CN(c1ccc(Nc3ncc(F)c(-c4cnn5c4[C@H](C)CCCC5)n3)nc1)C2
- inhibition [1]: 6%
- inhibition [2]: 2.5%
- inhibition [3]: 50%
- inhibition [4]: 2%
- inhibition (TAK1/TAB1 (Homo sapiens)): 87.5%
- inhibition [5]: 22%
- inhibition [6]: 3.5%
- inhibition [7]: 5%
- inhibition [8]: 44%
- inhibition [9]: 61.5%
- inhibition [10]: 5%
- inhibition [11]: 9.5%
- inhibition [12]: 16.5%
- inhibition [13]: 0%
- inhibition [14]: 12%
- inhibition [15]: 6.5%
- inhibition [16]: 13.5%
- inhibition [17]: 2.5%
- inhibition [18]: 41.5%
- inhibition [19]: 19.5%
- inhibition [20]: 30.5%
- inhibition [21]: 7%
- inhibition [22]: 75%

Source: ChEMBL document CHEMBL4385643, “Design of a brain-penetrant CDK4/6 inhibitor for glioblastoma” (Bioorg Med Chem Lett, 2019)
